According to EPA's CvTdb concentration-time database:

Legend:
[1] = tested on: Rat; assay: concentration in plasma after dosing
[2] = tested on: Rat; assay: concentration in brain after dosing; details: dosed: Perfluorodecanoic acid, 10 mg/kg, oral
[3] = tested on: Rat; assay: concentration in liver after dosing
[4] = tested on: Rat; assay: concentration in plasma after dosing; details: dosed: Perfluorodecanoic acid, 2 mg/kg, iv, Male, F344
[5] = tested on: Rat; assay: concentration in kidney after dosing; details: dosed: Perfluorodecanoic acid, 10 mg/kg, oral
[6] = tested on: Rat; assay: concentration in plasma after dosing; details: dosed: Perfluorodecanoic acid, 2 mg/kg, iv, Male, F344; remark: listed apart in the source
[7] = tested on: Rat; assay: concentration in plasma after dosing; details: 3 h; dosed: Primidone; 80 mg/kg; oral; Male; F344
[8] = tested on: Rat; assay: concentration in thymus after dosing; details: dosed: Thiodiglycolic Acid, 20 mg/kg, iv
[9] = tested on: Rat; assay: concentration in heart after dosing; details: dosed: Thiodiglycolic Acid, 20 mg/kg, iv
[10] = tested on: Rat; assay: concentration in liver after dosing; details: 8 h; dosed: Thiodiglycolic Acid; 20 mg/kg; iv; Female; Harlan Sprague Dawley
[11] = tested on: Rat; assay: concentration in heart after dosing; details: 3 h; dosed: Thiodiglycolic Acid; 20 mg/kg; iv; Female; Harlan Sprague Dawley

O=C(O)C(F)(F)C(F)(F)C(F)(F)C(F)(F)C(F)(F)C(F)(F)C(F)(F)C(F)(F)C(F)(F)F [Perfluorodecanoic acid]
dosed: Perfluorodecanoic acid
Details | concentration in liver [ng/g] | concentration in plasma [ng/mL]
[1], 0.5 h, 2 mg/kg, oral, Male, Harlan Sprague Dawley | – | 1650
[1], 1 h, 2 mg/kg, iv, Male, F344 | – | 5650
[1], 1 h, 2 mg/kg, oral, Male, Harlan Sprague Dawley | – | 3170
[1], 2 h, 2 mg/kg, oral, Male, Harlan Sprague Dawley | – | 3960
[1], 5 min, 2 mg/kg, iv, Female, Harlan Sprague-Dawley | – | 7650
[1], 5 min, 2 mg/kg, iv, Male, F344 | – | 7380
[1], 6 h, 2 mg/kg, iv, Male, F344 | – | 5650
[1], 12 h, 2 mg/kg, iv, Female, Harlan Sprague-Dawley | – | 5320
[1], 12 h, 2 mg/kg, iv, Male, F344 | – | 6200
[1], 12 h, 2 mg/kg, oral, Male, Harlan Sprague Dawley | – | 7680
[1], 24 h, 2 mg/kg, iv, Male, F344 | – | 4850
[1], 24 h, 2 mg/kg, oral, Male, Harlan Sprague Dawley | – | 6970
[1], 192 h, 2 mg/kg, iv, Female, Harlan Sprague-Dawley | – | 5740
[1], 192 h, 2 mg/kg, iv, Male, F344 | – | 2770
[1], 192 h, 2 mg/kg, oral, Male, Harlan Sprague Dawley | – | 4850
[1], 528 h, 2 mg/kg, iv, Male, F344 | – | 2240
[1], 528 h, 2 mg/kg, oral, Male, Harlan Sprague Dawley | – | 2640
[1], 864 h, 2 mg/kg, iv, Male, F344 | – | 1230
[1], 1200 h, 2 mg/kg, iv, Female, Harlan Sprague-Dawley | – | 2250
[1], 1200 h, 2 mg/kg, iv, Male, F344 | – | 719
[1], 1200 h, 2 mg/kg, oral, Male, Harlan Sprague Dawley | – | 1700
[1], 1848 h, 2 mg/kg, iv, Male, F344 | – | 437
[1], 1848 h, 2 mg/kg, oral, Male, Harlan Sprague Dawley | – | 907
[1], 2520 h, 2 mg/kg, iv, Male, F344 | – | 124
[1], 2520 h, 2 mg/kg, oral, Male, Harlan Sprague Dawley | – | 687
[1], 3360 h, 2 mg/kg, iv, Male, F344 | – | 277
[1], 3360 h, 2 mg/kg, oral, Male, Harlan Sprague Dawley | – | 498
[3], 1 h, 10 mg/kg, oral, Female, Harlan Sprague Dawley | 43800 | –
[3], 1 h, 10 mg/kg, oral, Male, Harlan Sprague Dawley | 56500 | –
[3], 24 h, 10 mg/kg, oral, Female, Harlan Sprague Dawley | 102000 | –
[3], 24 h, 10 mg/kg, oral, Male, Harlan Sprague Dawley | 107000 | –
[3], 24 h, 10 mg/kg, oral, Male, Harlan Sprague Dawley - this seems too small | 125000 | –
[3], 864 h, 10 mg/kg, oral, Female, Harlan Sprague Dawley | 45900 | –
[3], 864 h, 10 mg/kg, oral, Male, Harlan Sprague Dawley | 56700 | –
[3], 1848 h, 10 mg/kg, oral, Female, Harlan Sprague Dawley | 21200 | –
[3], 1848 h, 10 mg/kg, oral, Male, Harlan Sprague Dawley | 32600 | –
[3], 3360 h, 10 mg/kg, oral, Female, Harlan Sprague Dawley | 7920 | –
[3], 3360 h, 10 mg/kg, oral, Male, Harlan Sprague Dawley | 9980 | –

Details | concentration in brain, [2] [ng/g] | concentration in kidney, [5] [ng/g]
1 h, Female, Harlan Sprague Dawley | 581 | 18100
1 h, Male, Harlan Sprague Dawley | – | 12400
24 h, Female, Harlan Sprague Dawley | 2750 | 46800
24 h, Male, Harlan Sprague Dawley | 2360 | 24600
24 h, Male, Harlan Sprague Dawley - this seems too small | 2580 | 29500
864 h, Female, Harlan Sprague Dawley | 926 | 18300
864 h, Male, Harlan Sprague Dawley | 1240 | 11100
1848 h, Female, Harlan Sprague Dawley | 526 | 5210
1848 h, Male, Harlan Sprague Dawley | 602 | 4000
3360 h, Female, Harlan Sprague Dawley | – | 2740
3360 h, Male, Harlan Sprague Dawley | – | 1530

concentration in plasma [ng/mL]
Details | 6 h | 12 h | 864 h | 1200 h
[4] | 6240 | – | 2140 | –
[6] | – | 5770 | – | 860

CCC1(c2ccccc2)C(=O)NC(=O)NC1=O [Phenobarbital]
concentration in plasma [ng/mL], [1], dosed: Primidone, oral
Details | 0.25 h | 0.5 h | 1.5 h | 3 h | 6 h | 9 h | 12 h | 18 h | 22 h | 30 h
30 mg/kg, Female, F344 | – | – | 410 | 540 | 1060 | 900 | 1110 | 860 | 930 | –
30 mg/kg, Male, F344 | 300 | 330 | 2030 | 2980 | 3510 | 2720 | 2430 | 1660 | 1060 | –
80 mg/kg, Female, F344 | – | – | 630 | 1100 | 1960 | 2190 | 1980 | 1960 | 1500 | –
80 mg/kg, Female, Harlan Sprague-Dawley | 340 | 930 | – | – | – | – | 5660 | – | – | –
80 mg/kg, Male, F344 | – | – | 3330 | 3620 | 6530 | 7430 | – | 4020 | 2870 | –
130 mg/kg, Female, F344 | – | 960 | 870 | 4500 | 9670 | 3050 | 9030 | – | 2040 | 1920
130 mg/kg, Female, Harlan Sprague-Dawley | – | – | 4090 | – | – | – | – | – | – | –
130 mg/kg, Male, F344 | – | – | 4150 | – | 7700 | 9610 | – | – | 4120 | 2260
130 mg/kg, Male, Harlan Sprague Dawley | – | – | – | 840 | – | – | 2490 | – | – | –

Details | concentration in plasma [ng/mL]
[7] | 5240

O=C(O)CSCC(=O)O [Thiodiglycolic Acid]
Details | concentration in heart, [9] [ng/g] | concentration in thymus, [8] [ng/g]
1 h, Female, Harlan Sprague Dawley | 1670 | 2560
1 h, Male, Harlan Sprague Dawley | 1760 | 2750
2 h, Female, Harlan Sprague Dawley | 1120 | 1650
2 h, Male, Harlan Sprague Dawley | 1340 | 1940
3 h, Female, Harlan Sprague Dawley | 562 | 1060
3 h, Male, Harlan Sprague Dawley | 1040 | 1370
4 h, Female, Harlan Sprague Dawley | 414 | 708
4 h, Male, Harlan Sprague Dawley | 476 | 939
5.333 h, Female, Harlan Sprague Dawley | 232 | 399
5.333 h, Male, Harlan Sprague Dawley | 388 | 715
6.667 h, Female, Harlan Sprague Dawley | 238 | 236
8 h, Female, Harlan Sprague Dawley | 328 | 487
10 h, Female, Harlan Sprague Dawley | – | 215
10 h, Male, F344 | 362 | 358
10 min, Female, Harlan Sprague Dawley | 8480 | 8190
10 min, Male, F344 | 6870 | 10000
20 min, Female, F344 | 4000 | 3960
20 min, Female, Harlan Sprague Dawley | 4770 | 4460
40 min, Female, Harlan Sprague Dawley | 2650 | 3000
40 min, Male, Harlan Sprague Dawley | 2660 | 2890

dosed: Thiodiglycolic Acid, 20 mg/kg, iv
Details | concentration in liver, [3] [ng/g] | concentration in plasma, [1] [ng/mL]
1 h, Female, Harlan Sprague Dawley | 71500 | 8500
1 h, Male, Harlan Sprague Dawley | 107000 | 1340
2 h, Female, Harlan Sprague Dawley | 21800 | 1220
2 h, Male, Harlan Sprague Dawley | 108000 | 751
3 h, Female, Harlan Sprague Dawley | 9460 | 520
3 h, Male, Harlan Sprague Dawley | 50900 | 553
4 h, Female, Harlan Sprague Dawley | 2680 | 228
4 h, Male, Harlan Sprague Dawley | 45400 | 332
5.333 h, Female, Harlan Sprague Dawley | 2410 | 302
5.333 h, Male, Harlan Sprague Dawley | 29400 | 247
6.667 h, Female, Harlan Sprague Dawley | 2220 | –
8 h, Female, Harlan Sprague Dawley | 246 | 200
10 h, Female, Harlan Sprague Dawley | 7570 | –
10 h, Male, F344 | 4770 | 215
10 min, Female, Harlan Sprague Dawley | 75000 | 37500
10 min, Male, F344 | 148000 | 25600
20 min, Female, F344 | 198000 | 6700
20 min, Female, Harlan Sprague Dawley | 11000 | 9230
40 min, Female, Harlan Sprague Dawley | 49400 | 3520
40 min, Male, Harlan Sprague Dawley | 190000 | 1820

Details | concentration in heart [ng/g] | concentration in liver [ng/g]
[10] | – | 29000
[11] | 1150 | –

O=C(O)C(Cl)Cl [dichloroacetic acid]
[1], dosed: dichloroacetic acid
Details | concentration in plasma [ng/mL]
0.25 h, 10 mg/kg, oral, Male, Harlan Sprague Dawley | 1600
0.25 h, 100 mg/kg, oral, Male, F344 | 24900
0.5 h, 10 mg/kg, oral, Male, Harlan Sprague Dawley | 224
1 h, 40 mg/kg, oral, Female, Harlan Sprague Dawley | 5910
1 h, 60 mg/kg, iv, Female, Harlan Sprague-Dawley | 23200
1.25 h, 40 mg/kg, oral, Female, Harlan Sprague Dawley | 3600
1.25 h, 100 mg/kg, oral, Male, F344 | 23000
1.5 h, 40 mg/kg, oral, Female, Harlan Sprague Dawley | 4500
2 h, 40 mg/kg, oral, Female, Harlan Sprague Dawley | 2200
2 h, 60 mg/kg, iv, Female, Harlan Sprague-Dawley | 1670
2 h, 100 mg/kg, oral, Male, F344 | 44600
2 min, 10 mg/kg, iv, Male, F344 | 23500
2 min, 10 mg/kg, oral, Male, Harlan Sprague Dawley | 222
2 min, 40 mg/kg, oral, Female, Harlan Sprague Dawley | 1530
2 min, 100 mg/kg, oral, Male, F344 | 1590
4 h, 100 mg/kg, oral, Male, F344 | 49600
5 min, 10 mg/kg, iv, Male, F344 | 15300
5 min, 10 mg/kg, oral, Male, Harlan Sprague Dawley | 822
5 min, 40 mg/kg, oral, Female, Harlan Sprague Dawley | 3100
5 min, 100 mg/kg, oral, Male, F344 | 7760
6 h, 100 mg/kg, oral, Male, F344 | 25000
8 h, 100 mg/kg, oral, Male, F344 | 48300
10 min, 10 mg/kg, iv, Male, F344 | 7720
10 min, 10 mg/kg, oral, Male, Harlan Sprague Dawley | 1450
10 min, 40 mg/kg, oral, Female, Harlan Sprague Dawley | 9870
10 min, 100 mg/kg, oral, Male, F344 | 11800
20 min, 10 mg/kg, iv, Male, F344 | 1840
20 min, 10 mg/kg, oral, Male, Harlan Sprague Dawley | 829
20 min, 40 mg/kg, oral, Female, Harlan Sprague Dawley | 5350
20 min, 100 mg/kg, oral, Male, F344 | 5620
40 min, 10 mg/kg, oral, Male, Harlan Sprague Dawley | 184
40 min, 40 mg/kg, oral, Female, Harlan Sprague Dawley | 13900
40 min, 100 mg/kg, oral, Male, F344 | 53800
50 min, 10 mg/kg, oral, Male, Harlan Sprague Dawley | 170
